Measurements reported in ChEMBL document CHEMBL3885881, “DrugMatrix”.

Species: Rattus norvegicus
Type: toxicity, organism-based, Sprague-Dawley
Conditions: in vivo, po, route oral GAVAGE, vehicle 100 % SALINE; for ABSOLUTE EOSINOPHIL / ABSOLUTE LYMPHOCYTE / ABSOLUTE MONOCYTE / ABSOLUTE SEGMENTED NEUTROPHIL / BASOPHIL / EOSINOPHIL / ERYTHROCYTE COUNT / HEMATOCRIT / HEMOGLOBIN / LEUKOCYTE COUNT / LYMPHOCYTE / MEAN CORPUSCULAR HEMOGLOBIN / MEAN CORPUSCULAR HEMOGLOBIN CONCENTRATION / MEAN CORPUSCULAR VOLUME / MONOCYTE / NEUTROPHIL / NUCLEATED RED BLOOD CELLS / PLATELET COUNT: tissue Blood; for ALANINE AMINOTRANSFERASE / ALBUMIN / ALKALINE PHOSPHATASE / ASPARTATE AMINOTRANSFERASE / BLOOD UREA NITROGEN / CARBON DIOXIDE / CHLORIDE / CHOLESTEROL / CREATINE PHOSPHOKINASE / CREATININE / GLUCOSE / LACTATE DEHYDROGENASE / LIPASE / PHOSPHORUS / POTASSIUM / SODIUM / TOTAL BILIRUBIN / TOTAL PROTEIN / URIC ACID: tissue Plasma
[1] = 0 mg/kg, 6 h, vehicle control, dose level Control, time 0.25 day
[2] = 0 mg/kg, 24 h, vehicle control, dose level Control, time 1 day
[3] = 10 mg/kg, 6 h, dose level Low, time 0.25 day

Description: DrugMatrix - Regimen: Single

## O=[As][O-].[Na+] [SODIUM ARSENITE]
[1]
  ABSOLUTE EOSINOPHIL: 24 CELLS/uL
  ABSOLUTE LYMPHOCYTE: 11958.17 CELLS/uL
  ABSOLUTE MONOCYTE: 398.83 CELLS/uL
  ABSOLUTE SEGMENTED NEUTROPHIL: 1252.33 CELLS/uL
  BASOPHIL: 0%
  EOSINOPHIL: 0.17%
  ERYTHROCYTE COUNT: 5.37 x10E6/uL
  HEMATOCRIT: 35.6%
  HEMOGLOBIN: 13.05 G/DL
  LEUKOCYTE COUNT: 13.63 x10E3/uL
  LYMPHOCYTE: 87.67%
  MEAN CORPUSCULAR HEMOGLOBIN: 24.28 pg
  MEAN CORPUSCULAR HEMOGLOBIN CONCENTRATION: 36.67 G/DL
  MEAN CORPUSCULAR VOLUME: 66.28 fL
  MONOCYTE: 2.83%
  NEUTROPHIL: 9.33%
  NUCLEATED RED BLOOD CELLS: 0 /100WBC
  PLATELET COUNT: 947.83 x10E3/uL
  ALANINE AMINOTRANSFERASE: 51 u/L
  ALBUMIN: 4.02 G/DL
  ALKALINE PHOSPHATASE: 312.33 u/L
  ASPARTATE AMINOTRANSFERASE: 98.17 u/L
  BLOOD UREA NITROGEN: 9.5 mg/dL
  CARBON DIOXIDE: 18.83 mmol/L
  CHLORIDE: 103.5 MEQ/L
  CHOLESTEROL: 69.5 mg/dL
  CREATINE PHOSPHOKINASE: 580.17 u/L
  CREATININE: 0.53 mg/dL
  GLUCOSE: 175.67 mg/dL
  LACTATE DEHYDROGENASE: 295.5 u/L
  LIPASE: 8.17 u/L
  PHOSPHORUS: 14.12 mg/dL
  POTASSIUM: 5.77 MEQ/L
  SODIUM: 144.13 MEQ/L
  TOTAL BILIRUBIN: 0.12 mg/dL
  TOTAL PROTEIN: 4.87 G/DL
  URIC ACID: 2.25 mg/dL
[2]
  ABSOLUTE EOSINOPHIL: 0 CELLS/uL
  ABSOLUTE LYMPHOCYTE: 12232.83 CELLS/uL
  ABSOLUTE MONOCYTE: 20.33 CELLS/uL
  ABSOLUTE SEGMENTED NEUTROPHIL: 780.17 CELLS/uL
  BASOPHIL: 0%
  EOSINOPHIL: 0%
  ERYTHROCYTE COUNT: 5.18 x10E6/uL
  HEMATOCRIT: 33.48%
  HEMOGLOBIN: 13.22 G/DL
  LEUKOCYTE COUNT: 13.03 x10E3/uL
  LYMPHOCYTE: 93.33%
  MEAN CORPUSCULAR HEMOGLOBIN: 25.57 pg
  MEAN CORPUSCULAR HEMOGLOBIN CONCENTRATION: 39.52 G/DL
  MEAN CORPUSCULAR VOLUME: 64.65 fL
  MONOCYTE: 0.17%
  NEUTROPHIL: 6.5%
  NUCLEATED RED BLOOD CELLS: 0 /100WBC
  PLATELET COUNT: 931.5 x10E3/uL
  ALANINE AMINOTRANSFERASE: 60.83 u/L
  ALBUMIN: 4.18 G/DL
  ALKALINE PHOSPHATASE: 283.33 u/L
  ASPARTATE AMINOTRANSFERASE: 80.5 u/L
  BLOOD UREA NITROGEN: 11.83 mg/dL
  CARBON DIOXIDE: 35.33 mmol/L
  CHLORIDE: 98.5 MEQ/L
  CHOLESTEROL: 80 mg/dL
  CREATINE PHOSPHOKINASE: 181.83 u/L
  CREATININE: 0.2 mg/dL
  GLUCOSE: 142.67 mg/dL
  LACTATE DEHYDROGENASE: 65.5 u/L
  LIPASE: 9.83 u/L
  PHOSPHORUS: 9.82 mg/dL
  POTASSIUM: 5.69 MEQ/L
  SODIUM: 143.35 MEQ/L
  TOTAL BILIRUBIN: 0.15 mg/dL
  TOTAL PROTEIN: 6.2 G/DL
  URIC ACID: 0.42 mg/dL
[3]
  ABSOLUTE EOSINOPHIL: 25.17 CELLS/uL
  ABSOLUTE LYMPHOCYTE: 12416.17 CELLS/uL
  ABSOLUTE MONOCYTE: 214.33 CELLS/uL
  ABSOLUTE SEGMENTED NEUTROPHIL: 1561 CELLS/uL
  BASOPHIL: 0%
  EOSINOPHIL: 0.17%
  ERYTHROCYTE COUNT: 5.72 x10E6/uL
  HEMATOCRIT: 37.97%
  HEMOGLOBIN: 13.92 G/DL
  LEUKOCYTE COUNT: 14.22 x10E3/uL
  LYMPHOCYTE: 87.33%
  MEAN CORPUSCULAR HEMOGLOBIN: 24.38 pg
  MEAN CORPUSCULAR HEMOGLOBIN CONCENTRATION: 36.67 G/DL
  MEAN CORPUSCULAR VOLUME: 66.45 fL
  MONOCYTE: 1.5%
  NEUTROPHIL: 11%
  NUCLEATED RED BLOOD CELLS: 0 /100WBC
  PLATELET COUNT: 1120 x10E3/uL
  ALANINE AMINOTRANSFERASE: 87.17 u/L
  ALBUMIN: 4.02 G/DL
  ALKALINE PHOSPHATASE: 245.5 u/L
  ASPARTATE AMINOTRANSFERASE: 141.33 u/L
  BLOOD UREA NITROGEN: 12.83 mg/dL
  CARBON DIOXIDE: 19 mmol/L
  CHLORIDE: 104 MEQ/L
  CHOLESTEROL: 63.17 mg/dL
  CREATINE PHOSPHOKINASE: 934.5 u/L
  CREATININE: 0.27 mg/dL
  GLUCOSE: 184.33 mg/dL
  LACTATE DEHYDROGENASE: 393.33 u/L
  LIPASE: 8.83 u/L
  PHOSPHORUS: 14.3 mg/dL
  POTASSIUM: 6.23 MEQ/L
  SODIUM: 142.98 MEQ/L
  TOTAL BILIRUBIN: 0.12 mg/dL
  TOTAL PROTEIN: 5.28 G/DL
  URIC ACID: 2.03 mg/dL
